Target: recombinant Human Phosphodiesterase B2 (PDE4B2) (Homo sapiens, UniProt Q07343)
Assay: Human Phosphodiesterase B2 Radiometric Assay
Type: biochemical
Details: 0.1 μg/mL recombinant PDE4B2; preincubated at 30 C for 30 min; [3H]cyclic AMP 8 nM, stopped after 20 min; yttrium silicate SPA beads; read-out: PDE4B2 pIC50 (converted)
Experimental: Human Phosphodiesterase B2 Radiometric Assay
The assay uses recombinant Human Phosphodiesterase B2 (PDE4B2) produced in house (PrAZL0163), stored at −20° C. This assay is based on the observation that 5′AMP, the product of the reaction catalysed by PDE4, binds preferentially to yttrium silicate SPA beads (Amersham Biosciences, UK) compared to the substrate, cAMP. Compounds at the appropriate concentration were preincubated at 30 C for 30 min with an assay buffer containing 50 mM HEPES (pH 7.5), 8.3 mM MgCl2, 1.7 mM EGTA, 0.01% (w/v) Brij®35 and 0.1 μg/mL recombinant PDE4B2. The reaction was started by the addition of [3H]cyclic AMP to give a final concentration of 8 nM, and was stopped 20 min after the addition of the substrate by the addition of yttrium silicate SPA beads containing 18 mM Zn SO4. Bound […] was measured using a Topcount NXT (Packard Bioscience, UK). pIC50 values (presented in Table 2) were determined using Xlfit3 curve fitting, using model 205.

Sequence of recombinant Human Phosphodiesterase B2 (PDE4B2) (Q07343 1-564 isoform Q07343-2): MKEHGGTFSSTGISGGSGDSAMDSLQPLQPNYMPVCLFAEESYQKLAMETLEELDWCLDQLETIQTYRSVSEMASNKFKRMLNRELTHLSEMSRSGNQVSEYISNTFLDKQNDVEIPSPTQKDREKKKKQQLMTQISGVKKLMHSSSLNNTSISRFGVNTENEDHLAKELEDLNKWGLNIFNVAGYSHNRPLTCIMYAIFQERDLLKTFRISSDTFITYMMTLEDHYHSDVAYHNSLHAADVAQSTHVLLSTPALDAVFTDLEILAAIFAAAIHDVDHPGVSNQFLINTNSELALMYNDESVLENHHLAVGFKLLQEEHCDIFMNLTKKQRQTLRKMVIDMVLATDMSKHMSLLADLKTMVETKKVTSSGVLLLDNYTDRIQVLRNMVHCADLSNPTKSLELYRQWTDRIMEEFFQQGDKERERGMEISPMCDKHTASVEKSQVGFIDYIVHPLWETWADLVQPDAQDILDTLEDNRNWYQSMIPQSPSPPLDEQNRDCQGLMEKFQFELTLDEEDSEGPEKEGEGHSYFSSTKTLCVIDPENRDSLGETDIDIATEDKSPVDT

SMILES	IC50 [nM]
C[C@@H]1CN(CCCc2ccc(-c3cccc(Oc4ncc(F)cc4C(=O)N[C@H]4CC[C@@H](NC(=O)c5cc6ncccn6n5)CC4)c3)cc2)C[C@H](C)N1 [Example 143, N-((1s,4s)-4-(2-(4′-(3-((3S,5R)-3,5-dimethylpiperazin-1-yl)propyl)biphenyl-3-yloxy)-5-fluoronicotinamido)cyclohexyl)pyrazolo[1,5-a]pyrimidine-2-carboxamide]	0.0794
Cc1cccc2nc(C(=O)N[C@H]3CC[C@@H](NC(=O)c4cc(F)cnc4Oc4cccc(-c5ccc(CN6CCC(N7CCCC7)CC6)cc5)c4)CC3)cn12 [Example 109, N-((1s,4s)-4-(5-fluoro-2-(4′-((4-(pyrrolidin-1-yl)piperidin-1-yl)methyl)biphenyl-3-yloxy)nicotinamido)cyclohexyl)-5-methylimidazo[1,2-a]pyridine-2-carboxamide]	0.0631
C[C@@H]1CN(CCCc2ccc(-c3cccc(Oc4ncc(F)cc4C(=O)N[C@H]4CC[C@@H](NC(=O)c5cscn5)CC4)c3)cc2)C[C@H](C)N1 [Example 155, N-((1s,4s)-4-(2-(4′-(3-((3S,5R)-3,5-dimethylpiperazin-1-yl)propyl)biphenyl-3-yloxy)-5-fluoronicotinamido)cyclohexyl)thiazole-4-carboxamide]	0.0398
O=C(NC1CCC(NC(=O)c2cc(F)cnc2Oc2cccc(-c3ccc(CCCN4CCNCC4)cc3)c2)CC1)c1nc(CO)cs1 (stereo not drawn) [Example 187, N-((1s,4s)-4-(5-Fluoro-2-(4′-(3-(piperazin-1-yl)propyl)biphenyl-3-yloxy)nicotinamido)cyclohexyl)-4-(hydroxymethyl)thiazole-2-carboxamide]	0.2
Cc1nc(C(=O)N[C@H]2CC[C@@H](NC(=O)c3cc(F)cnc3Oc3cccc(-c4ccc(CN5C[C@@H](C)N[C@@H](C)C5)cc4CN4CCSCC4)c3)CC2)cs1 [Example 189, N-((1s,4s)-4-(2-(4′-(((3S,5R)-3,5-dimethylpiperazin-1-yl)methyl)-2′-(thiomorpholinomethyl)biphenyl-3-yloxy)-5-fluoronicotinamido)cyclohexyl)-2-methylthiazole-4-carboxamide]	0.0158
O=C(N[C@H]1CC[C@@H](NC(=O)c2cc(F)cnc2Oc2cccc(-c3ccc(O)cc3CN3CCOCC3)c2)CC1)c1ccc(O)cc1 [Example 31, 5-fluoro-2-(4′-hydroxy-2′-(morpholinomethyl)biphenyl-3-yloxy)-N-((1s,4s)-4-(4-hydroxybenzamido)cyclohexyl)nicotinamide]	0.501
C[C@@H]1CN(Cc2ccc(-c3cccc(Oc4ncc(F)cc4C(=O)N[C@H]4CC[C@@H](NC(=O)c5cc6ccccn6n5)CC4)c3)cc2O)C[C@H](C)N1 [Example 97, N-((1s,4s)-4-(2-(4′-(((3S,5R)-3,5-dimethylpiperazin-1-yl)methyl)-3′-hydroxybiphenyl-3-yloxy)-5-fluoronicotinamido)cyclohexyl)pyrazolo[1,5-a]pyridine-2-carboxamide]	0.126
Cc1ccc(O)c(C(=O)N[C@H]2CC[C@@H](NC(=O)c3cc(F)cnc3Oc3cccc(-c4ccc(O)c(CN5C[C@@H](C)N[C@@H](C)C5)c4)c3)CC2)c1 [Example 95, 2-(3′-(((3S,5R)-3,5-dimethylpiperazin-1-yl)methyl)-4′-hydroxybiphenyl-3-yloxy)-5-fluoro-N-((1s,4s)-4-(2-hydroxy-5-methylbenzamido)cyclohexyl)nicotinamide]	0.2
CN(C)Cc1cc(O)ccc1-c1cccc(Oc2ncc(F)cc2C(=O)N[C@H]2CC[C@@H](NC(=O)c3csc(C(C)(C)C)n3)CC2)c1 [Example 43, 2-tert-butyl-N-((1s,4s)-4-(2-(2′-((dimethylamino)methyl)-4′-hydroxybiphenyl-3-yloxy)-5-fluoronicotinamido)cyclohexyl)thiazole-4-carboxamide]	0.126
Cc1nc(C(=O)N[C@H]2CC[C@@H](NC(=O)c3cc(F)cnc3Oc3cccc(-c4ccc(CN(C)C)cc4CN4CCOCC4)c3)CC2)cs1 [Example 119, N-((1s,4s)-4-(2-(4′-((dimethylamino)methyl)-2′-(morpholinomethyl)biphenyl-3-yloxy)-5-fluoronicotinamido)cyclohexyl)-2-methylthiazole-4-carboxamide]	0.0794
Cc1cccc2nc(C(=O)N[C@H]3CC[C@@H](NC(=O)c4cc(F)cnc4Oc4cccc(-c5ccc(CCCNC(C)C)cc5)c4)CC3)cn12 [Example 116, N-((1s,4s)-4-(5-fluoro-2-(4′-(3-(isopropylamino)propyl)biphenyl-3-yloxy)nicotinamido)cyclohexyl)-5-methylimidazo[1,2-a]pyridine-2-carboxamide]	0.0316
Cc1cccc2nc(C(=O)N[C@H]3CC[C@@H](NC(=O)c4cc(F)cnc4Oc4cccc(-c5ccc(O)cc5CN5CCCOCC5)c4)CC3)cn12 [Example 20, N-((1s,4s)-4-(2-(2′-((1,4-oxazepan-4-yl)methyl)-4′-hydroxybiphenyl-3-yloxy)-5-fluoronicotinamido)cyclohexyl)-5-methylimidazo[1,2-a]pyridine-2-carboxamide]	0.0316
C[C@@H]1CN(Cc2ccc(-c3cccc(Oc4ncc(F)cc4C(=O)N[C@H]4CC[C@@H](NC(=O)c5cc6n(n5)CCCC6)CC4)c3)cc2)C[C@H](C)N1 [Example 113, N-((1s,4s)-4-(2-(4′-(((3S,5R)-3,5-dimethylpiperazin-1-yl)methyl)biphenyl-3-yloxy)-5-fluoronicotinamido)cyclohexyl)-4,5,6,7-tetrahydropyrazolo[1,5-a]pyridine-2-carboxamide]	0.0501
O=C(N[C@H]1CC[C@@H](NC(=O)c2cc(F)cnc2Oc2cccc(-c3ccc(O)cc3CN3CCOCC3)c2)CC1)c1ccccc1O [Example 38, 5-fluoro-2-(4′-hydroxy-2′-(morpholinomethyl)biphenyl-3-yloxy)-N-((1s,4s)-4-(2-hydroxybenzamido)cyclohexyl)nicotinamide]	0.0398
Cc1cc(C(=O)N[C@H]2CC[C@@H](NC(=O)c3cc(F)cnc3Oc3cccc(-c4cccc(CN5C[C@@H](C)N[C@@H](C)C5)c4)c3)CC2)nn1C [Example 72, N-((1s,4s)-4-(1,5-dimethyl-1H-pyrazole-3-carboxamido)cyclohexyl)-2-(3′-(((3S,5R)-3,5-dimethylpiperazin-1-yl)methyl)biphenyl-3-yloxy)-5-fluoronicotinamide]	0.0631
Cc1nc(C(=O)N[C@H]2CC[C@@H](NC(=O)c3cc(F)cnc3Oc3cccc(-c4ccc(O)cc4CN4CCCCCC4)c3)CC2)cs1 [Example 23, N-((1s,4s)-4-(2-(2′-(azepan-1-ylmethyl)-4′-hydroxybiphenyl-3-yloxy)-5-fluoronicotinamido)cyclohexyl)-2-methylthiazole-4-carboxamide]	0.316
CN(C)CCN(C)Cc1ccc(-c2cccc(Oc3ncc(F)cc3C(=O)N[C@H]3CC[C@@H](NC(=O)c4cn5c(n4)CCCC5)CC3)c2)cc1 [Example 105, N-((1s,4s)-4-(2-(4′-(((2-(dimethylamino)ethyl)(methyl)amino)methyl)biphenyl-3-yloxy) 5-fluoronicotinamido)cyclohexyl)-5,6,7,8-tetrahydroimidazo[1,2-a]pyridine-2-carboxamide]	0.631
Cc1cc(C(=O)N[C@H]2CC[C@@H](NC(=O)c3cc(F)cnc3Oc3cccc(-c4cccc(CCCN5C[C@@H](C)N[C@@H](C)C5)c4)c3)CC2)nn1C [Example 126, N-((1s,4s)-4-(1,5-dimethyl-1H-pyrazole-3-carboxamido)cyclohexyl)-2-(3′-(3-((3S,5R)-3,5-dimethylpiperazin-1-yl)propyl)biphenyl-3-yloxy)-5-fluoronicotinamide]	0.0501

Source: patent US8273774B2, “Phenoxypyridinylamide compounds” (AstraZeneca AB, priority 2008, dated 2012)
